Here are results for two compounds from patent publication US8039233B2, “Nucleic acid sequences and their use in methods to identify umami modulatiors” (Givaudan S.A., priority 2007, dated 2011).

Entries after “also recorded” stand apart in the source; their conditions may differ.

Test [1] has as its system CSR:T1R1 chimeric homomer. Description: Fluo-4 calcium assay, cells transfected with CSR:T1R1. Type of test: cell-based, human. The settings on record: Calcium Chloride 2 mM, 745047-97-6 25 μM, MSG 2.5 mM + IMP 0.2 mM; for CSR:T1R1 AVG (mean ΔF/F): HEK293T/Gα16-gustducin 44 cells, six replicates. The procedure: (§1) Fluo-4 is a fluorescent indicator for intracellular calcium and allows for determination of changes in the intracellular calcium concentration, in particular an increase in response to receptor activation occurring after ligand addition.
(§2) HEK293 cells stably expressing Gα16-gustducin 44 were used as host cells and transfected with various constructs as described in example 4.
(§3) Black, clear-bottom 96-well plates were used for all assays. They were seeded the day before with 8500 transfected cells per well and maintained at 37° C. overnight in an a growth medium appropriate for the cells used. For HEK293 cells, Dulbecco's Modified Eagle medium containing high glucose, L-glutamine, pyroxidine hydrochloride, and supplemented with 10% fetal bovine serum was used for growth and maintenance of the HEK293 cells.
(§4) At the time of the assay, the growth medium was discarded and cells were incubated for 1 hour (at 37° C. in the dark) with 50 μl of a calcium assay solution consisting of 1.5 μM Fluo-4 AM (Molecular Probes™, Invitrogen, US) and 2.5 μM probenicid (Sigma-Aldrich) dissolved in a reduced calcium C1 buffer solution. Reduced calcium C1 buffer solution contains 130 mM NaCl, 5 mM KCl, 10 mM Hepes, 0.5 mM CaCl2 (reduced from 2 mM) and 10 mM glucose (pH 7.4).
(§5) After the initial 1 hour loading period, the plates were washed 5 times with 100 μl per well of reduced calcium C1 buffer using an automated plate washer (BioTek) and after washing, the plate was further incubated for 30 minutes at room temperature in the dark to allow for complete de-esterification of the Fluo-4-AM. The buffer solutions were discarded, the plate was washed 5 times with 100 μl reduced calcium C1 wash buffer and finally the cells were reconstituted in 180 μl of reduced calcium C1 wash buffer.
(§6) For assay reading, the plate was placed in a FLIPR (fluorescence imaging plate reader (FLIPR-Tetra, Molecular Devices)), and receptor activation was initiated following addition of 20 μl of a 10× concentrated ligand stock solution, which were prepared in reduced calcium C1 buffer.
(§7) Fluorescence was continuously monitored for 15 seconds prior to ligand addition and for 105 seconds after ligand addition (45-105 sec may be sufficient).
(§8) Receptor activation is determined by the increase in peak fluorescence (F) normalized to the baseline fluorescence (F0). The data are normalized using the following equation: ΔF/F=(F−F0)/F0, where F is the peak fluorescence signal and F0 is the baseline fluorescence signal, wherein the baseline fluorescence represents the mean fluorescence calculated for the first 10 to 15 seconds prior to ligand addition.
(§9) This value obtained corresponds to the calcium increase of the cell in response to a direct or indirect interaction with the transfected receptor (“signal”).
(§10) As a negative control, mock transfected cells were exposed to the same concentration of ligand and the concentration of calcium traces not corresponding to a signal was determined.
(§11) HEK293T cells that stably express Gα16-gustducin 44 (formed as described in WO 2004/055048) were transfected with the CSR::T1R1, CSR::T1R3 constructs, or with hCaSR as follows:
On day 0, the HEK293T/Gα16-gustducin 44 cells were plated in 96-well black, clear-bottom plates at a density of 8500 cells per well and grown overnight in selective growth media. […]

The subject of test [2] is CSR:T1R1/CSR:T1R3 chimeric heterodimer. Kind of test: Fluo-4 calcium assay, cells transfected with CSR:T1R1 and CSR:T1R3. Type of test: cell-based, human. The following applies: for response (calcium signal) of CSR:T1R1/CSR:T1R3 chimeric heterodimer, in words / CSR:T1R1/CSR:T1R3 AVG (mean ΔF/F): Calcium Chloride 2 mM, 745047-97-6 25 μM; for CSR:T1R1/CSR:T1R3 AVG (mean ΔF/F): HEK293T/Gα16-gustducin 44 cells, six replicates, MSG 2.5 mM + IMP 0.2 mM; for signal in CSR:T1R1/CSR:T1R3 cells as magnitude of signals obtained in cells transfected with the hCaSR receptor: relative to hCaSR transfected cells. The procedure: as §1, §2, §3, §4, §5, §6, §7, §8, §9, §10, §11
On day 0, the HEK293T/Gα16-gustducin 44 cells were plated in 96-well black, clear-bottom plates at a density of 8500 cells per well and grown overnight in selective growth media. On day 1, the media was changed to an antibiotic-free and serum-free growth medium and the cells were transfected using 75 ng each of CSR:T1R1 and CSR:T1R3 (total 150 ng), T1R1 and T1R3 (total 150 ng), or 75 ng hCaSR vector construct DNA and 0.3 μl of Lipofectamine 2000 (Invitrogen).
For transfection of either the CSR:T1R1/CSR:T1R3 heterodimer, 75 ng of each vector construct was combined for a total of 150 ng per pair and used together with 0.3 μl of Lipofectamine 2000. 75 ng of hCaSR vector DNA was used for this calcium-sensing monomeric GPCR […]

The target of the next test is T1, hCaSR (Homo sapiens, UniProt P41180, E1011Q).
T1 construct: For hCaSR, a commercially available pCMV-based vector construct which is based on the full length cDNA was used; host or cells: HEK293T cells stably expressing Galpha16-gustducin 44, transiently transfected with 75 ng of vector
T1 sequence (P41180 20-1078 E1011Q): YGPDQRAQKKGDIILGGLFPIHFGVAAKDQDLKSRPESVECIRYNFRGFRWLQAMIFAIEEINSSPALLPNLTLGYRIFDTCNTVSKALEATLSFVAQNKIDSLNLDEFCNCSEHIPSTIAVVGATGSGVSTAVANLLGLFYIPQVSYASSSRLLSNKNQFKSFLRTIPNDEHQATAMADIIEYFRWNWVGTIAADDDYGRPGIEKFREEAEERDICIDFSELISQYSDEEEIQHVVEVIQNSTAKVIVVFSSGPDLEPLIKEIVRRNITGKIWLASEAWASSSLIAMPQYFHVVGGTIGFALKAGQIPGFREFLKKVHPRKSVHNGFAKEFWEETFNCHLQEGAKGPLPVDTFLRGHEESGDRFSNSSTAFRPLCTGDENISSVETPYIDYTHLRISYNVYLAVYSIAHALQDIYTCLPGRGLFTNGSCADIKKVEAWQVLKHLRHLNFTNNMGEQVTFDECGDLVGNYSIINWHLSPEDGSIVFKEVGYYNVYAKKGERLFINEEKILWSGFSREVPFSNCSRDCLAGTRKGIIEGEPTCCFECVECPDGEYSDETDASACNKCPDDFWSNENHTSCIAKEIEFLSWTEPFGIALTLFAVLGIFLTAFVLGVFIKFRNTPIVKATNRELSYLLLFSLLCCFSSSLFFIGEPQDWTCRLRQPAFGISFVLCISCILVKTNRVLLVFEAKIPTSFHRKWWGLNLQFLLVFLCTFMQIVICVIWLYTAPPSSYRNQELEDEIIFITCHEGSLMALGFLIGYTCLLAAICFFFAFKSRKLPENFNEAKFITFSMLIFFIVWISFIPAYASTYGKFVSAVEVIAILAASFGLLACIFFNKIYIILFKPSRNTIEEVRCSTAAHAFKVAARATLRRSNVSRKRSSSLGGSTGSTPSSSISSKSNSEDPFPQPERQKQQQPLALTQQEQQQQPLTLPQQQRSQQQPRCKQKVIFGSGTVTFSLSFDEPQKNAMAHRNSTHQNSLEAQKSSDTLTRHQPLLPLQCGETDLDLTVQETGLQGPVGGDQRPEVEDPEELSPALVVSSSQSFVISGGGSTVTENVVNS
Description: Fluo-4 calcium assay, cells transfected with hCaSR. The format is cell-based. The settings on record: Calcium Chloride 2 mM, 745047-97-6 25 μM, MSG 2.5 mM + IMP 0.2 mM; for hCaSR AVG (mean ΔF/F): HEK293T/Gα16-gustducin 44 cells, six replicates. On the procedure:
as §1, §2, §3, §4, §5, §6, §7
(§12) Receptor activation is determined by the increase in peak fluorescence (F) normalized to the baseline fluorescence (F0). The data are normalized using the following equation: ΔF/F=(F−F0)/F0, where F is the peak fluorescence signal and F0 is the baseline fluorescence signal, wherein the baseline fluorescence represents the mean fluorescence calculated for the first 10 to 15 seconds prior to ligand addition. […]
As a negative control, mock transfected cells were exposed to the same concentration of ligand and the concentration of calcium traces not corresponding to a signal was determined. […]

The subject of test [3] is Mock transfected HEK293T/Gα16-gustducin 44 cells. Description: Fluo-4 calcium assay, mock transfection (negative control). The format is cell-based. The following applies: Calcium Chloride 2 mM, 745047-97-6 25 μM; for Neg. control (mock transfection) AVG (mean ΔF/F): mock transfected cells, six replicates, MSG 2.5 mM + IMP 0.2 mM. On the procedure: as §1, §2, §3
At the time of the assay, the growth medium was discarded and cells were incubated for 1 hour (at 37° C. in the dark) with 50 μl of a calcium assay solution consisting of 1.5 μM Fluo-4 AM (Molecular Probes™, Invitrogen, US) and 2.5 μM probenicid (Sigma-Aldrich) dissolved in a reduced calcium C1 buffer solution. […]
as §6, §7, §12, §10
The intracellular calcium response following stimulation with various ligands was determined in HEK293T cells stably expressing Gα16-gustducin 44 and transfected with CSR:T1R1 and/or CSR:T1R3 chimeric constructs. […]
The transfections were performed as described in example 4. Results were calculated as described in example 1 (data indicates the normalized increase in fluorescence over baseline after stimulation (ΔF/F); the mean (AVG) and the ±Standard deviation (STD) of six replicate experiments is given). […]
The calcium mobilization signals obtained are increase in peak fluorescence (F) normalized to the baseline fluorescence (F0). […]

As to `COc1cc(C)ccc1CNC(=O)C(=O)NCCc1ccccn1` [745047-97-6-oxalamide, N-(2-Methoxy-4-methyl-benzyl)-N′-(2-pyridin-2-yl-ethyl)-oxalamide], in test [1], the “response (calcium signal) of CSR:T1R1 chimeric homomer, in words” value was “significant increase of the signal; also recorded: activated” and the “CSR:T1R1 AVG (mean ΔF/F)” value is given as 0.31. Besides, in test [2], the “response (calcium signal) of CSR:T1R1/CSR:T1R3 chimeric heterodimer, in words” value is on record as “significant increase of the signal; also recorded: significantly higher the background signals; also recorded: activated”; the “CSR:T1R1/CSR:T1R3 AVG (mean ΔF/F)” value was found to be 0.43; the “signal in CSR:T1R1/CSR:T1R3 cells as magnitude of signals obtained in cells transfected with the hCaSR receptor” value was “approximately 50%”. Also, the “hCaSR AVG (mean ΔF/F)” value on hCaSR was 0.04. In test [3], the “response in mock transfected negative control, in words” value was “No response” and the “Neg. control (mock transfection) AVG (mean ΔF/F)” value was found to be 0.03.
In the case of `[Ca+2].[Cl-].[Cl-]` [Calcium, Calcium Chloride], the “response (calcium signal) of CSR:T1R1 chimeric homomer, in words” value in test [1] (listed as calcium) was “react to calcium; also recorded: activated”; in test [1] (listed as calcium chloride) it was “significant increase of the signal”. In test [1], the “CSR:T1R1 AVG (mean ΔF/F)” value was found to be 0.78. Besides, the “response (calcium signal) of CSR:T1R1/CSR:T1R3 chimeric heterodimer, in words” value is on record as “react to calcium; also recorded: activated” in test [2] (listed as calcium) and “significant increase of the signal; also recorded: significantly higher the background signals” in test [2] (listed as calcium chloride). The “CSR:T1R1/CSR:T1R3 AVG (mean ΔF/F)” value in test [2] came to 0.72. For the same compound, the “signal in CSR:T1R1/CSR:T1R3 cells as magnitude of signals obtained in cells transfected with the hCaSR receptor” value in test [2] is given as “approximately 50%”. Besides, the entries for the “response (calcium signal) of hCaSR, in words” value at hCaSR (listed as calcium) and at hCaSR (listed as calcium chloride) were “react to calcium” and “responded”, respectively. On hCaSR, the “hCaSR AVG (mean ΔF/F)” value was 1.44. The “response in mock transfected negative control, in words” value in test [3] is listed as “No response”. Besides, the “Neg. control (mock transfection) AVG (mean ΔF/F)” value in test [3] turned out to be 0.24.
